In PubChem BioAssay AID330 (DTP/NCI, 2004):
Values joined by “and” are separate entries in the source; they are usually repeats but may differ in a detail not shown here. Equal values may be shown once. Inconclusive results and toxic doses are left out.

Test system: P388 leukemia ip, CD2F1 mice, survival T/C
Assay: NCI In Vivo Anticancer Drug Screen. Data for tumor model P388 Leukemia (intraperitoneal) in CD2F1 (CDF1) mice
Conditions: endpoint: median survival time, higher = longer survival
Method in brief: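 Mice carrying the transplanted tumor received test compound or vehicle. Survival was recorded in each group, and the value is the treated-group measurement divided by that of the vehicle-treated control group.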

[1] = dose: 50.0 mg/kg/injection, schedule: Q01DX005 (ip), vehicle: saline with Tween-80
[2] = dose: 100.0 mg/kg/injection, schedule: Q01DX005 (ip), vehicle: saline with Tween-80
[3] = dose: 200.0 mg/kg/injection, schedule: Q01DX005 (ip), vehicle: saline with Tween-80
[4] = dose: 50.0 mg/kg/injection, schedule: Q01DX005 (ip), vehicle: Klucel (hydroxypropylcellulose) (HPC)
[5] = dose: 100.0 mg/kg/injection, schedule: Q01DX005 (ip), vehicle: Klucel (hydroxypropylcellulose) (HPC)
[6] = dose: 200.0 mg/kg/injection, schedule: Q01DX005 (ip), vehicle: Klucel (hydroxypropylcellulose) (HPC)
[7] = dose: 25.0 mg/kg/injection, schedule: Q01DX009 (ip), vehicle: saline with Tween-80
[8] = dose: 50.0 mg/kg/injection, schedule: Q01DX009 (ip), vehicle: saline with Tween-80
[9] = dose: 50.0 mg/kg/injection, schedule: Q01DX009 (ip), vehicle: other
[10] = dose: 100.0 mg/kg/injection, schedule: Q01DX009 (ip), vehicle: other
[11] = dose: 200.0 mg/kg/injection, schedule: Q01DX009 (ip), vehicle: other
[12] = dose: 50.0 mg/kg/injection, schedule: Q01DX009 (ip), vehicle: Klucel (hydroxypropylcellulose) (HPC)
[13] = dose: 100.0 mg/kg/injection, schedule: Q01DX009 (ip), vehicle: saline with Tween-80
[14] = dose: 200.0 mg/kg/injection, schedule: Q01DX009 (ip), vehicle: saline with Tween-80
[15] = dose: 400.0 mg/kg/injection, schedule: Q01DX009 (ip), vehicle: saline with Tween-80

COc1cc(C2c3cc4c(cc3[C@@H](OC3OC(COC(C)=O)C(OC(C)=O)C(OC(C)=O)C3OC(C)=O)[C@H]3COC(=O)[C@H]23)OCO4)cc(OC)c1OC (stereo not given in full)
T/C (dose: 4.0 mg/kg/injection, schedule: Q01DX005 (ip), vehicle: saline): 107 % of control
T/C (dose: 8.0 mg/kg/injection, schedule: Q01DX005 (ip), vehicle: saline): 113 % of control
T/C (dose: 16.0 mg/kg/injection, schedule: Q01DX005 (ip), vehicle: saline): 105 % of control
T/C (dose: 32.0 mg/kg/injection, schedule: Q01DX005 (ip), vehicle: saline): 98 % of control and 105 % of control
T/C (dose: 64.0 mg/kg/injection, schedule: Q01DX005 (ip), vehicle: saline): 100 % of control
T/C (dose: 128.0 mg/kg/injection, schedule: Q01DX005 (ip), vehicle: saline): 100 % of control

CCOC(=O)COc1cc2c(cc1C(C)c1cc(OC)c(OC)c(OC)c1)OCO2 (stereo not given)
T/C [1]: 100 % of control
T/C [2]: 105 % of control
T/C [3]: 99 % of control

Cc1ccc(NCC2(/N=C/c3ccccc3)OC(CO)C(O)C2O)cc1 (stereo not given)
T/C (dose: 266.0 mg/kg/injection, schedule: Q01DX009 (ip), vehicle: Klucel (hydroxypropylcellulose) (HPC)): 150 % of control and 157 % of control
T/C (dose: 400.0 mg/kg/injection, schedule: Q01DX009 (ip), vehicle: Klucel (hydroxypropylcellulose) (HPC)): 170 % of control and 176 % of control

CCOC(=O)C(c1ccccc1)N(CCCN(CC)CC)c1ccccc1 (stereo not given)
T/C (dose: 12.5 mg/kg/injection, schedule: Q01DX005 (ip), vehicle: saline): 108 % of control
T/C (dose: 25.0 mg/kg/injection, schedule: Q01DX005 (ip), vehicle: saline): 108 % of control
T/C [1]: 100 % of control
T/C (dose: 50.0 mg/kg/injection, schedule: Q01DX005 (ip), vehicle: saline): 101 % of control

CCOC(=O)C1Sc2c(c(=O)n(C)c3ccccc23)C1=O (stereo not given)
T/C [4]: 101 % of control and 107 % of control and 110 % of control
T/C [5]: 99 % of control and 105 % of control and 108 % of control
T/C [6]: 108 % of control and 112 % of control and 123 % of control

c1cc2sc3ccc(OCCCN4CCCCC4)cc3c2cc1OCCCN1CCCCC1
T/C (dose: 12.5 mg/kg/injection, schedule: Q01DX009 (ip), vehicle: saline with Tween-80): 104 % of control
T/C [7]: 115 % of control
T/C [8]: 91 % of control

CCCCN1CSC(=S)N(Cc2ccccc2)C1
T/C [9]: 115 % of control
T/C [10]: 108 % of control
T/C [11]: 92 % of control

CCCCNC(=S)NC1C2CC3CC(C2)CC1C3 (stereo not given)
T/C [12]: 97 % of control
T/C (dose: 100.0 mg/kg/injection, schedule: Q01DX009 (ip), vehicle: Klucel (hydroxypropylcellulose) (HPC)): 98 % of control
T/C (dose: 200.0 mg/kg/injection, schedule: Q01DX009 (ip), vehicle: Klucel (hydroxypropylcellulose) (HPC)): 101 % of control

COC(=O)C(C)N(CCCl)P(=O)(N1CC1)N1CC1 (stereo not given)
T/C (dose: 7.5 mg/kg/injection, schedule: Q01DX005 (ip), vehicle: saline): 119 % of control
T/C (dose: 30.0 mg/kg/injection, schedule: Q01DX005 (ip), vehicle: saline): 182 % of control

CCOC(=O)c1coc(N)n1
T/C (dose: 12.5 mg/kg/injection, schedule: Q01DX009 (ip), vehicle: other): 98 % of control
T/C (dose: 25.0 mg/kg/injection, schedule: Q01DX009 (ip), vehicle: other): 100 % of control
T/C [9]: 106 % of control
T/C [10]: 107 % of control
T/C [11]: 103 % of control

NC(C(=O)O)C(=O)O
T/C [1]: 101 % of control
T/C [2]: 100 % of control
T/C [3]: 89 % of control

O=C1C=C(N2CC2)c2ccccc2C1=O
T/C (dose: 6.25 mg/kg/injection, schedule: Q01DX009 (ip), vehicle: saline with Tween-80): 118 % of control
T/C (dose: 6.25 mg/kg/injection, schedule: Q04DX003 (ip), vehicle: saline with Tween-80): 110 % of control
T/C (dose: 8.33 mg/kg/injection, schedule: Q01DX009 (ip), vehicle: saline with Tween-80): 118 % of control
T/C (dose: 12.5 mg/kg/injection, schedule: Q04DX003 (ip), vehicle: saline with Tween-80): 120 % of control

CC1=C(C(=O)CC(=O)C(=O)Nc2cc(Cl)c(Cl)cc2Cl)Sc2ccccc2N1
T/C [1]: 101 % of control
T/C [2]: 102 % of control
T/C [3]: 98 % of control

NC=O
T/C [13]: 109 % of control
T/C (dose: 100.0 mg/kg/injection, schedule: Q04DX003 (ip), vehicle: saline): 100 % of control
T/C [14]: 118 % of control
T/C (dose: 200.0 mg/kg/injection, schedule: Q04DX003 (ip), vehicle: saline): 100 % of control
T/C [15]: 118 % of control
T/C (dose: 400.0 mg/kg/injection, schedule: Q04DX003 (ip), vehicle: saline): 118 % of control

CCNC(=O)OCc1c(C)nc2n1CCS2
T/C [4]: 115 % of control
T/C [5]: 112 % of control

CCn1c(=O)c2[nH]c(Cl)nc2n(C)c1=O
T/C (dose: 16.0 mg/kg/injection, schedule: Q01DX009 (ip), vehicle: Klucel (hydroxypropylcellulose) (HPC)): 111 % of control
T/C (dose: 25.0 mg/kg/injection, schedule: Q01DX009 (ip), vehicle: Klucel (hydroxypropylcellulose) (HPC)): 102 % of control
T/C (dose: 32.0 mg/kg/injection, schedule: Q01DX009 (ip), vehicle: Klucel (hydroxypropylcellulose) (HPC)): 107 % of control
T/C [12]: 94 % of control
T/C (dose: 64.0 mg/kg/injection, schedule: Q01DX009 (ip), vehicle: Klucel (hydroxypropylcellulose) (HPC)): 102 % of control

Cc1cc(O)c(CCC(C)CCCC(C)C)c(O)c1 (stereo not given)
T/C [4]: 100 % of control
T/C [5]: 100 % of control
T/C [6]: 110 % of control

CCOC(=O)N1c2ccccc2SC1C#N (stereo not given)
T/C (dose: 60.0 mg/kg/injection, schedule: Q01DX005 (ip), vehicle: saline with Tween-80): 97 % of control
T/C (dose: 120.0 mg/kg/injection, schedule: Q01DX005 (ip), vehicle: saline with Tween-80): 92 % of control
T/C (dose: 240.0 mg/kg/injection, schedule: Q01DX005 (ip), vehicle: saline with Tween-80): 105 % of control

CCCCCCCC(=O)Nc1cc(C)ccc1C
T/C (dose: 100.0 mg/kg/injection, schedule: Q04DX003 (ip), vehicle: saline with Tween-80): 100 % of control
T/C (dose: 200.0 mg/kg/injection, schedule: Q04DX003 (ip), vehicle: saline with Tween-80): 86 % of control
T/C (dose: 400.0 mg/kg/injection, schedule: Q04DX003 (ip), vehicle: saline with Tween-80): 90 % of control

O=C1C=CC2(CCC23C=C(Br)C(=O)O3)O1 (stereo not given)
T/C (dose: 5.0 mg/kg/injection, schedule: Q01DX009 (ip), vehicle: Klucel (hydroxypropylcellulose) (HPC)): 102 % of control
T/C (dose: 10.0 mg/kg/injection, schedule: Q01DX009 (ip), vehicle: Klucel (hydroxypropylcellulose) (HPC)): 108 % of control
T/C (dose: 20.0 mg/kg/injection, schedule: Q01DX009 (ip), vehicle: Klucel (hydroxypropylcellulose) (HPC)): 106 % of control

COC(=O)Nc1nc2cc(Cl)c(Cl)cc2[nH]1
T/C [7]: 103 % of control and 92 % of control
T/C [8]: 105 % of control and 123 % of control and 124 % of control
T/C [13]: 111 % of control
T/C [14]: 114 % of control
T/C [15]: 112 % of control
T/C (dose: 600.0 mg/kg/injection, schedule: Q01DX009 (ip), vehicle: saline with Tween-80): 119 % of control

CCOC(=O)NC(C)(C)CN(C(=O)OCC)C(C)C
T/C (dose: 100.0 mg/kg/injection, schedule: Q04DX003 (ip), vehicle: other): 95 % of control
T/C (dose: 200.0 mg/kg/injection, schedule: Q04DX003 (ip), vehicle: other): 100 % of control
T/C (dose: 400.0 mg/kg/injection, schedule: Q04DX003 (ip), vehicle: other): 95 % of control

O=C(Nc1ccc2c(c1)oc(=O)c1ccccc12)C(Cl)Cl
T/C [1]: 96 % of control
T/C [2]: 98 % of control
T/C [3]: 89 % of control

C=C(c1ccc(Cl)cc1)c1ccc(OC)c(OC)c1
T/C [1]: 94 % of control
T/C [2]: 99 % of control
T/C [3]: 97 % of control

COc1ccc(N2C(=O)CC(c3cc(C)ccc3OC)CC2=O)cc1
T/C (dose: 100.0 mg/kg/injection, schedule: Q01DX001 (ip), vehicle: saline): 98 % of control
T/C (dose: 200.0 mg/kg/injection, schedule: Q01DX001 (ip), vehicle: saline): 98 % of control
T/C (dose: 400.0 mg/kg/injection, schedule: Q01DX001 (ip), vehicle: saline): 91 % of control

O=C(O)c1cc(=O)c2cc3c(=O)cc(C(=O)O)[nH]c3c(Cl)c2[nH]1
T/C [7]: 96 % of control
T/C [8]: 96 % of control
T/C [13]: 100 % of control

CS(=O)(=O)/C=C/c1ccccc1
T/C [8]: 103 % of control
T/C [13]: 90 % of control
T/C [14]: 90 % of control

Cn1c2cc([N+](=O)[O-])ccc2c(=O)c2c(O)cc3c(c21)C=CC(C)(C)O3
T/C (dose: 100.0 mg/kg/injection, schedule: Q01DX001 (ip), vehicle: saline with Tween-80): 100 % of control
T/C (dose: 200.0 mg/kg/injection, schedule: Q01DX001 (ip), vehicle: saline with Tween-80): 103 % of control
